# System: 817829-284-R-J1-PDC complex spheroid viability
# Test: Anticancer human tumor 817829-284-R-J1-PDC patient-derived colon adenocarcinoma cell line growth inhibition [POLQ]
# Settings: for IC50: curve of first compound; for viability, T/C: stronger effect = lower value
# In short: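 Growth inhibition in 3D: complex spheroids (tumor PDC, HUVEC, MSC) treated with POLQ inhibitor combinations; where Cmax unknown, highest tested concentration 10 microM, except SN-38 at 1 microM.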
# 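Further: spheroids exposed to compounds for 7 days.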
# 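Wherever viability, T/C is given: 100% = DMSO vehicle-treated spheroids.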
smiles,measurement,setting,value
COc1cccc(OCCCN)c1-c1cc(Nc2cnc(C#N)cn2)n[nH]1 + Nc1ccc(C#CCN(C(=O)Cc2ncc(C(F)(F)F)cc2C(F)(F)F)c2ccc(F)cc2)nn1,IC50,second compound 0.0316 µM,5.44 nM
same,IC50,second compound 0.1 µM,5.2 nM
same,IC50,second compound 0.316 µM,5.7 nM
same,IC50,second compound 1 µM,5.69 nM
same,IC50,second compound 3.16 µM,5.41 nM
same,IC50,second compound 10 µM,5.7 nM
same,"viability, T/C","second compound 0.0316 µM, first compound 0.00316 µM",82.4%
same,"viability, T/C","second compound 0.0316 µM, first compound 0.01 µM",13.8%
same,"viability, T/C","second compound 0.0316 µM, first compound 0.0316 µM",5.45%
same,"viability, T/C","second compound 0.0316 µM, first compound 0.1 µM",4.83%
same,"viability, T/C","second compound 0.0316 µM, first compound 0.316 µM",4.44%
same,"viability, T/C","second compound 0.0316 µM, first compound 1 µM",3.65%
same,"viability, T/C","second compound 0.1 µM, first compound 0.00316 µM",77.1%
same,"viability, T/C","second compound 0.1 µM, first compound 0.01 µM",14.6%
same,"viability, T/C","second compound 0.1 µM, first compound 0.0316 µM",4.6%
same,"viability, T/C","second compound 0.1 µM, first compound 0.1 µM",5.23%
same,"viability, T/C","second compound 0.1 µM, first compound 0.316 µM",3.56%
same,"viability, T/C","second compound 0.1 µM, first compound 1 µM",3%
same,"viability, T/C","second compound 0.316 µM, first compound 0.00316 µM",87%
same,"viability, T/C","second compound 0.316 µM, first compound 0.01 µM",14.7%
same,"viability, T/C","second compound 0.316 µM, first compound 0.0316 µM",4.16%
same,"viability, T/C","second compound 0.316 µM, first compound 0.1 µM",5.93%
same,"viability, T/C","second compound 0.316 µM, first compound 0.316 µM",4.07%
same,"viability, T/C","second compound 0.316 µM, first compound 1 µM",3.09%
same,"viability, T/C","second compound 1 µM, first compound 0.00316 µM",84.7%
same,"viability, T/C","second compound 1 µM, first compound 0.01 µM",16.7%
same,"viability, T/C","second compound 1 µM, first compound 0.0316 µM",5.79%
same,"viability, T/C","second compound 1 µM, first compound 0.1 µM",4.2%
same,"viability, T/C","second compound 1 µM, first compound 0.316 µM",4.04%
same,"viability, T/C","second compound 1 µM, first compound 1 µM",2.8%
same,"viability, T/C","second compound 3.16 µM, first compound 0.00316 µM",84%
same,"viability, T/C","second compound 3.16 µM, first compound 0.01 µM",11.2%
same,"viability, T/C","second compound 3.16 µM, first compound 0.0316 µM",5.75%
same,"viability, T/C","second compound 3.16 µM, first compound 0.1 µM",5.62%
same,"viability, T/C","second compound 3.16 µM, first compound 0.316 µM",3.65%
same,"viability, T/C","second compound 3.16 µM, first compound 1 µM",3.11%
same,"viability, T/C","second compound 10 µM, first compound 0.00316 µM",87.2%
same,"viability, T/C","second compound 10 µM, first compound 0.01 µM",14.5%
same,"viability, T/C","second compound 10 µM, first compound 0.0316 µM",5.81%
same,"viability, T/C","second compound 10 µM, first compound 0.1 µM",3.93%
same,"viability, T/C","second compound 10 µM, first compound 0.316 µM",4.01%
same,"viability, T/C","second compound 10 µM, first compound 1 µM",3.39%
